# Test results reported in US8815833B2, “Stable amifostine liquid concentrate” (Seidose, LLC, priority 2006, dated 2014).
# Where two headings read alike, the source gives them in different places. Marks after values point to notes of the source that are not given here.
# How the values were obtained:
# [1] = Hydrolysis of amifostine to free thiol metabolite as function of pH (stability evaluations); format: physicochemical
# Text: At pH 7.4, the intrinsic pH, amifostine has a net neutral charge as a double zwitterion with the phosphate completely dissociated (−2) and the amino groups fully protonated (+2). During stability evaluations carried out for the purposes of the present invention it was observed that the hydrolysis of amifostine to release free thiol metabolite is rapid at acidic pH and even at weakly acidic pH. On the other hand, the hydrolysis was almost 100-fold slower at pH 10 and above.
# physchem = format: physicochemical; conditions: for crystallization of solution: 200 mg/ml solution
# Protocol: Amifostine is a phospho ester compound that is used pharmacologically for the amelioration of side effects of radiation and chemotherapy. The compound is currently marketed as a lyophilizate of a crystalline trihydrate of amifostine, typically in vials of 500 mg, which is reconstituted to a final administration concentration of 5 to 40 mg/ml for IV infusion. […] Amifostine is known to undergo hydrolysis in aqueous solution at acidic, neutral, and mild basic conditions. Thus, it was believed that stable aqueous formulations that would not hydrolyze to any appreciable extent over typical storage time periods were not likely to be found. […] Thus, aqueous liquid concentrates of amifostine were simply thought not possible. Because such an aqueous liquid amifostine concentrate would eliminate a potential source of dosing errors in clinical practice, there is clearly a need for the same.
# (§1) At pH 9.0, 50% of the amifostine is present as the double zwitterion and 50% of amine 1 (primary amine) is present as the free base form making 50% of the amifostine have a net negative charge. At pH 10.0, only 10% of amifostine is present as a double zwitterion and the other 90% has a net negative charge; amine 1 is mainly in the free base form. […] Approximately 1% is present as the double zwitterion. More importantly, 17% of amifostine has both amines in the un-ionized form as free bases and this particular ionic species of the molecule carries about −2 charge. At this pH (11), it is observed that there is a significant improvement in the stability. […] At pH 13, over 95% of the amifostine is present with both amines in their free base forms with improved stability.
# [2] = Merck Index, cited from earlier work
# [3] = Storage stability of amifostine solutions by stability indicating HPLC method (% remaining); format: physicochemical
# Protocol: As will be seen below in Example 1, a 250 mg/ml liquid concentrate was prepared at pH 9, and 200 mg/ml liquid concentrates were prepared at pH 10.5, 11.5, 12.5 and 13. The stability was monitored at 40° C., 25° C. and 5° C. by a stability indicating HPLC method using the following HPLC conditions:
# Solutions of amifostine at 200 mg/ml or 250 mg/ml were prepared at the pHs shown in the table below and stored at the temperatures indicated for the times indicated. “% remaining” in the table below is determined by the HPLC method described earlier in the specification.
# [4] = Approximate concentration of ionic species as function of pH according to the pKa values; format: physicochemical
# Text: There are four pKas for amifostine. The Merck Index lists them to be <2.0, 4.2, 9.0 and 11.7. The amino groups (2) and the phosphate group (2 pKa per group) can all be completely protonated. [Ref: Structure of Radio protective agent S-2(3-Aminoprpropylamino)ethylphosphorthioic acid (WR 2721) Jean Karle, Acta Cryst (1988) C44 135-138]. The usual form crystallized from solution is a double zwitterion with the phosphate completely dissociated (−2) and the amino groups fully protonated (+2). It is usually drawn with the amines in their free base form and the phosphate completely protonated but that is not how it exists in solution. So, the two pKa values from the double zwitterion are for the two amino functions ionizing (i.e., pKas 3 & 4). The first two pKas are for the phosphate which are perturbed by the two positive charges on the amino groups which pushes them lower than pKa1 and pKa2 for phosphoric acid. The following table describes the ionic nature of the compound as function of pH according to the pKa values reported in the Merck Index. The table also summarizes the approximate concentration of ionic species as function of pH:
# as §1
# [5] = cited from earlier work
compound,measurement,setting,value
"NCCCNCCSP(=O)(O)O [amifostine, S-2(3-Aminoprpropylamino)ethylphosphorthioic acid]",hydrolysis to release free thiol metabolite,[1]; acidic pH and even weakly acidic pH,rapid
same,hydrolysis slower than at acidic / weakly acidic pH,[1]; pH 10 and above,~100 fold
same,crystallization of solution,"physchem; below pH 10, refrigeration conditions",crystallizes out
same,crystallization of solution,"physchem; pH 10.0, refrigeration conditions",remained clear with no crystallization observed
same,solubility,"physchem; 5 °C, pH 10, water",~100 mg/mL
same,pKa,[2]; first pKa (phosphate),< 2.0
same,pKa,"[2]; fourth pKa (sec. amine, amine 2)",11.7
same,pKa,[2]; second pKa (phosphate),4.2
same,pKa,"[2]; third pKa (prim. amine, amine 1)",9.0
same,potency loss,"[3]; 5° C., 180-day storage, pH 12.5 and 13 formulations",≤ 3%
same,% remaining,"[3]; pH 7.4, 200 mg/ml, 25° C., 7 days",89%
same,% remaining,"[3]; pH 7.4, 200 mg/ml, 25° C., 14 days",78%
same,% remaining,"[3]; pH 7.4, 200 mg/ml, 25° C., 25 days",60%
same,% remaining,"[3]; pH 7.4, 200 mg/ml, 25° C., 33 days",52%
same,% remaining,"[3]; pH 7.4, 200 mg/ml, 40° C., 2 days",71%
same,% remaining,"[3]; pH 7.4, 250 mg/ml, 40° C., 1 day",84%
same,% remaining,"[3]; pH 7.4, 250 mg/ml, 40° C., 2 days",66%
same,% remaining,"[3]; pH 7.4, 250 mg/ml, 40° C., 3 days",57%
same,% remaining,"[3]; pH 9.0, 250 mg/ml, 5° C., 90 days",96%
same,% remaining,"[3]; pH 9.0, 250 mg/ml, 5° C., 180 days",91* %
same,% remaining,"[3]; pH 9.0, 250 mg/ml, 25° C., 10 days",83%
same,% remaining,"[3]; pH 9.0, 250 mg/ml, 25° C., 25 days",60%
same,% remaining,"[3]; pH 9.0, 250 mg/ml, 40° C., 1 day",83%
same,% remaining,"[3]; pH 10.5, 200 mg/ml, 5° C., 90 days",94%
same,% remaining,"[3]; pH 10.5, 200 mg/ml, 5° C., 180 days",90%
same,% remaining,"[3]; pH 10.5, 200 mg/ml, 25° C., 10 days",85%
same,% remaining,"[3]; pH 10.5, 200 mg/ml, 25° C., 25 days",62%
same,% remaining,"[3]; pH 10.5, 200 mg/ml, 25° C., 35 days",57%
same,% remaining,"[3]; pH 10.5, 200 mg/ml, 25° C., 60 days",39%
same,% remaining,"[3]; pH 10.5, 200 mg/ml, 40° C., 1 day",84%
same,% remaining,"[3]; pH 10.5, 200 mg/ml, 40° C., 2 days",75%
same,% remaining,"[3]; pH 11.5, 200 mg/ml, 5° C., 90 days",93%
same,% remaining,"[3]; pH 11.5, 200 mg/ml, 5° C., 180 days",92%
same,% remaining,"[3]; pH 11.5, 200 mg/ml, 25° C., 10 days",86%
same,% remaining,"[3]; pH 11.5, 200 mg/ml, 25° C., 25 days",64%
same,% remaining,"[3]; pH 11.5, 200 mg/ml, 25° C., 60 days",51%
same,% remaining,"[3]; pH 11.5, 200 mg/ml, 40° C., 1 day",90%
same,% remaining,"[3]; pH 12.5, 200 mg/ml, 5° C., 90 days",99%
same,% remaining,"[3]; pH 12.5, 200 mg/ml, 5° C., 180 days",97%
same,% remaining,"[3]; pH 12.5, 200 mg/ml, 25° C., 10 days",94%
same,% remaining,"[3]; pH 12.5, 200 mg/ml, 25° C., 32 days",86%
same,% remaining,"[3]; pH 12.5, 200 mg/ml, 25° C., 60 days",74%
same,% remaining,"[3]; pH 12.5, 200 mg/ml, 40° C., 4 days",77%
same,% remaining,"[3]; pH 13.0, Batch #1, 200 mg/ml, 5° C., 90 days",99%
same,% remaining,"[3]; pH 13.0, Batch #1, 200 mg/ml, 5° C., 180 days",98%
same,% remaining,"[3]; pH 13.0, Batch #1, 200 mg/ml, 5° C., 270 days",95%
same,% remaining,"[3]; pH 13.0, Batch #1, 200 mg/ml, 25° C., 18 days",96%
same,% remaining,"[3]; pH 13.0, Batch #1, 200 mg/ml, 25° C., 36 days",82%
same,% remaining,"[3]; pH 13.0, Batch #1, 200 mg/ml, 25° C., 60 days",74%
same,% remaining,"[3]; pH 13.0, Batch #1, 200 mg/ml, 40° C., 4 days",85-86%
same,% remaining,"[3]; pH 13.0, Batch#2, 200 mg/ml, 5° C., 90 days",100%
same,% remaining,"[3]; pH 13.0, Batch#2, 200 mg/ml, 5° C., 180 days",97%
same,% remaining,"[3]; pH 13.0, Batch#2, 200 mg/ml, 5° C., 270 days",95%
same,% remaining,"[3]; pH 13.0, Batch#2, 200 mg/ml, 25° C., 18 days",96%
same,% remaining,"[3]; pH 13.0, Batch#2, 200 mg/ml, 25° C., 36 days",82%
same,% remaining,"[3]; pH 13.0, Batch#2, 200 mg/ml, 25° C., 90 days",75%
same,% remaining,"[3]; pH 13.0, batch #3, 200 mg/ml, 5° C., 90 days",101%
same,% remaining,"[3]; pH 13.0, batch #3, 200 mg/ml, 5° C., 180 days",97%
same,% remaining,"[3]; pH 13.0, batch #3, 200 mg/ml, 5° C., 270 days",95%
same,% remaining,"[3]; pH 13.0, batch #3, 200 mg/ml, 25° C., 18 days",97%
same,% remaining,"[3]; pH 13.0, batch #3, 200 mg/ml, 25° C., 36 days",82%
same,% remaining,"[3]; pH 13.0, batch #3, 200 mg/ml, 25° C., 90 days",76%
same,Prim. amine (pKa 9.0) Protonated,[4]; pH 7,~100%
same,Prim. amine (pKa 9.0) Unprotonated,[4]; pH 7,~0%
same,Sec. amine (pKa 11.7) Protonated,[4]; pH 7,~100%
same,Sec. amine (pKa 11.7) Unprotonated,[4]; pH 7,~0%
same,Prim. amine (pKa 9.0) Protonated,[4]; pH 9,~50%
same,Prim. amine (pKa 9.0) Unprotonated,[4]; pH 9,~50%
same,Sec. amine (pKa 11.7) Protonated,[4]; pH 9,~100%
same,Sec. amine (pKa 11.7) Unprotonated,[4]; pH 9,~0%
same,"amine 1 present as free base form, net negative charge",[4]; pH 9.0,50%
same,present as the double zwitterion,[4]; pH 9.0,50%
same,Prim. amine (pKa 9.0) Protonated,[4]; pH 10,~10%
same,Prim. amine (pKa 9.0) Unprotonated,[4]; pH 10,~90%
same,Sec. amine (pKa 11.7) Protonated,[4]; pH 10,~100%
same,Sec. amine (pKa 11.7) Unprotonated,[4]; pH 10,~0%
same,has a net negative charge (amine 1 free base),[4]; pH 10.0,90%
same,present as a double zwitterion,[4]; pH 10.0,10%
same,Prim. amine (pKa 9.0) Protonated,[4]; pH 11,~1%
same,Prim. amine (pKa 9.0) Unprotonated,[4]; pH 11,~99%
same,Sec. amine (pKa 11.7) Protonated,[4]; pH 11,~83%
same,Sec. amine (pKa 11.7) Unprotonated,[4]; pH 11,~17%
same,both amines in the un-ionized form as free bases (about -2 charge),[4]; pH 11.5 solution,17%
same,present as the double zwitterion,[4]; pH 11.5 solution,Approximately 1%
same,Prim. amine (pKa 9.0) Protonated,[4]; pH 12,~0.1%
same,Prim. amine (pKa 9.0) Unprotonated,[4]; pH 12,>99.9%
same,Sec. amine (pKa 11.7) Protonated,[4]; pH 12,~33%
same,Sec. amine (pKa 11.7) Unprotonated,[4]; pH 12,~67%
same,Prim. amine (pKa 9.0) Protonated,[4]; pH 13,~0.01%
same,Prim. amine (pKa 9.0) Unprotonated,[4]; pH 13,99.99%^
same,Sec. amine (pKa 11.7) Protonated,[4]; pH 13,<5%
same,Sec. amine (pKa 11.7) Unprotonated,[4]; pH 13,>95%
same,present with both amines in their free base forms,[4]; pH 13,over 95%
NCCCNCCSP(=O)(O)O [amifostine trihydrate],crystallization of solution,[5]; about 200 mg/ml solution in water stored at refrigerated conditions,substantial crystallization results
same,aqueous solubility in water,[5]; ambient conditions,about 200 mg/ml
